Test system: circBRIP1 in HCT116 cells
Test: DHX9 circBRIP1 cellular target engagement SYBR Green assay (qPCR)
Assay type: cell-based
Settings: Homo sapiens, HCT-116, circBRIP1, HCT116 cells; SyBr assay (marked ^+); read-out: DHX9 Cellular Target Engagement EC50

EC50 [nM]	Compound
> 10000	CC(c1ccccc1)n1cc(C(=O)Nc2cc(Cl)cc(NS(C)(=O)=O)c2)cn1 (stereo not drawn) [Example 142, N-(3-chloro-5-(methylsulfonamido)phenyl)-1-(1-phenylethyl)-1H-pyrazole-4-carboxamide]
16100	CS(=O)(=O)Nc1cc(Cl)cc(NC(=O)c2coc(-c3ccccc3)c2)c1 [Example 125]

Test system: circBRIP1 in HCT116 cells
Test: DHX9 circBRIP1 cellular target engagement TaqMan Multiplex assay (qPCR)
Assay type: cell-based
Settings: Homo sapiens, HCT-116, 72 h, circBRIP1, HCT116 cells, 72 hours; Taqman assay (marked *); read-out: DHX9 Cellular Target Engagement EC50

EC50 [µM]	Compound
0.13	Cc1sc(C(=O)Nc2cc(Cl)cc(NS(C)(=O)=O)c2)cc1-c1ncc(F)cc1Cl [Example 359]
0.361	Cc1sc(C(=O)Nc2cc(Cl)cc(NS(C)(=O)=O)c2)cc1-c1c(F)cc(F)cc1F [Example 378]
> 10	Cc1cccnc1-c1csc(C(=O)Nc2cc(Cl)cc(N(C)S(C)(=O)=O)c2)c1 [Example 374]
0.119	Cc1sc(C(=O)Nc2cc(Cl)cc(NS(C)(=O)=O)c2)cc1-c1ncc(C(F)(F)F)cn1 [Example 357]
0.362	CCS(=O)(=O)Nc1cc(Cl)cc(NC(=O)c2cc(-c3ncc(F)cc3Cl)c(C)s2)c1 [Example 355]
0.124	Cc1sc(C(=O)Nc2cc(Cl)cc(NS(C)(=O)=O)c2)cc1-c1c(F)cncc1F [Example 362]
0.257	CCS(=O)(=O)Nc1cc(Cl)cc(NC(=O)c2cc(-c3ncc(F)cc3C)c(C)s2)c1 [Example 350]
0.311	CS(=O)(=O)Nc1cc(Cl)cc(NC(=O)c2cc(-c3ncc(C(F)(F)F)cc3F)cs2)c1 [Example 371]
0.171	Cn1cc(C(=O)Nc2cc(Cl)cc(NS(C)(=O)=O)c2)cc1-c1ncc(F)cc1OC(F)F [Example 363]
2.12	CCCS(=O)(=O)Nc1cc(Cl)cc(NC(=O)c2cc(-c3ncccc3C)cs2)c1 [Example 372]
0.128	CCS(=O)(=O)Nc1cc(Cl)cc(NC(=O)c2cc(-c3ncc(C(F)(F)F)cn3)c(C)s2)c1 [Example 366]

Same assay, conditions: Homo sapiens, HCT-116, circBRIP1, HCT116 cells; * Taqman assay was used; read-out: DHX9 Cellular Target Engagement EC50

Compound	EC50 [µM]
Cc1sc(C(=O)Nc2cc(Cl)cc(NS(C)(=O)=O)c2)cc1-c1ncc(N2CCC3(CC2)CC3)cc1F [Example 467]	0.164
Cn1cc(C(=O)Nc2cc(Cl)cc(NS(C)(=O)=O)c2)cc1-c1ncc(N2CCC3(CC2)CC3)cc1F [Example 468]	0.269
CS(=O)(=O)Nc1cc(Cl)cc(NC(=O)c2cc(-c3ccc(N4CC(F)(F)C4)cn3)cs2)c1 [Example 487]	0.654
Cc1sc(C(=O)Nc2cc(Cl)cc(NS(C)(=O)=O)c2)cc1-c1ncc(OC(C)CO)cn1 (stereo not drawn) [Example 677]	0.0137
Cc1cc(C(=O)Nc2cc(Cl)cc(NS(C)(=O)=O)c2)cn1-c1ccc(OC2COC2)cn1 [Example 668]	0.22
Cn1cc(C(=O)Nc2cc(Cl)cc(NS(C)(=O)=O)c2)cc1-c1ncc(F)cc1Cl [Example 544]	0.538
Cc1sc(C(=O)Nc2cc(Cl)cc(NS(C)(=O)=O)c2)cc1-c1ncc(P(C)(C)=O)cn1 [Example 648]	0.471
Cn1cc(C(=O)Nc2cc(Cl)cc(NS(C)(=O)=O)c2)cc1-c1ncc(F)cc1/C=C/c1cncc(F)c1 [Example 729]	0.382
COc1cnc(-c2cc(C(=O)Nc3cc(Cl)cc(NS(C)(=O)=O)c3)cn2CC(F)(F)F)nc1 [Example 563]	0.327
Cc1sc(C(=O)Nc2cc(Cl)cc(NS(C)(=O)=O)c2)nc1-c1ccc(F)cn1 [Example 716]	> 10
CN1CC[C@@H](Oc2cnc(-c3cc(C(=O)Nc4cc(Cl)cc(NS(C)(=O)=O)c4)cn3C)c(F)c2)C1 [Example 640]	0.0162
Cn1cc(C(=O)Nc2cc(Cl)cc(NS(C)(=O)=O)c2)cc1-c1ncc(F)cc1OCc1cnnn1C [Example 726]	0.32
CCS(=O)(=O)Nc1cc(Cl)cc(NC(=O)c2cc(-c3ncc(F)cn3)n(C)c2)c1 [Example 542]	0.307
Cn1cc(C(=O)Nc2cc(Cl)cc(NS(C)(=O)=O)c2)cc1-c1ncc(C(F)(F)F)cc1F [Example 554]	0.238
CS(=O)(=O)Nc1cc(Cl)cc(NC(=O)c2cc(-c3ncc(F)cn3)n(CC(F)(F)F)c2)c1 [Example 562]	0.543
COC1CCN(c2cc(F)cnc2-c2cc(C(=O)Nc3cc(Cl)cc(NS(C)(=O)=O)c3)sc2C)C1 (stereo not drawn) [Example 505]	0.219
Cn1cc(C(=O)Nc2cc(Cl)cc(NS(C)(=O)=O)c2)cc1-c1cc(N2CC(F)(F)C2)ccn1 [Example 552]	0.238
Cn1cc(C(=O)Nc2cc(Cl)cc(NS(C)(=O)=O)c2)cc1-c1ncc(N2CCN(C(=O)C3CC3)CC2)cc1F [Example 714]	0.181
CC(C)Oc1cnc(-c2csc(C(=O)Nc3cc(Cl)cc(NS(C)(=O)=O)c3)c2)c(F)c1 [Example 458]	0.199
Cc1nc(COc2cc(F)cnc2-c2cc(C(=O)Nc3cc(Cl)cc(NS(C)(=O)=O)c3)cn2C)cs1 [Example 724]	0.224
CC(C)Oc1cc(N2CC(F)(F)C2)cnc1-c1cc(C(=O)Nc2cc(Cl)cc(NS(C)(=O)=O)c2)cn1C [Example 513]	0.133
Cc1cc(C(=O)Nc2cc(Cl)cc(NS(C)(=O)=O)c2)cn1-c1ncc(N2CCC3(C2)CC3(F)F)cc1F (stereo not drawn) [Example 414]	0.128
CN1CC(Oc2cnc(-c3cc(C(=O)Nc4cc(Cl)cc(NS(C)(=O)=O)c4)cn3CC(F)F)nc2)C1 [Example 679]	0.196
Cc1cc(N2CCC(F)(F)CC2)cnc1-c1cc(C(=O)Nc2cc(Cl)cc(NS(C)(=O)=O)c2)cn1C [Example 600]	0.186
Cc1sc(C(=O)Nc2cc(Cl)cc(NS(C)(=O)=O)c2)cc1-c1ncc(OC(C)C(=O)O)cn1 (stereo not drawn) [Example 671]	> 10
Cn1cc(C(=O)Nc2cc(Cl)cc(NS(C)(=O)=O)c2)cc1-c1ncc(N2CCC(C(F)(F)F)CC2)cc1F [Example 472]	0.127
CCOc1cc(F)cnc1-c1cc(C(=O)Nc2cc(Cl)cc(NS(C)(=O)=O)c2)cn1C [Example 561]	0.274

Next, values leading:

EC50 [µM]	Compound
0.192	Cc1cc(F)cnc1-c1cc(C(=O)Nc2cc(Cl)cc(NS(C)(=O)=O)c2)cn1C [Example 545]
1.68	Cn1cc(C(=O)Nc2cc(Cl)cc(NS(=O)(=O)CCO)c2)cc1-c1ncc(F)cc1F [Example 581]
0.0621	CN1CC(Oc2cnc(-c3cc(C(=O)Nc4cc(Cl)cc(NS(C)(=O)=O)c4)cn3CC(F)(F)F)c(F)c2)C1 [Example 638]
0.329	Cn1cc(C(=O)Nc2cc(Cl)cc(NS(C)(=O)=O)c2)cc1-c1ncc(OC2CN(C(=O)C3CC3)C2)cc1F [Example 697]
0.34	Cn1cc(C(=O)Nc2cc(Cl)cc(NS(C)(=O)=O)c2)cc1-c1c(F)cc(F)c[n+]1[O-] [Example 567]
0.17	Cn1cc(C(=O)Nc2cc(Cl)cc(NS(C)(=O)=O)c2)cc1-c1ccc(N2CCN(C(=O)C3CCC3)CC2)cn1 [Example 593]
0.142	Cn1cc(C(=O)Nc2cc(Cl)cc(NS(C)(=O)=O)c2)cc1-c1ccc(N2CCC3(C2)CC3(F)F)cn1 (stereo not drawn) [Example 495]
0.535	CS(=O)(=O)Nc1cc(Cl)cc(NC(=O)c2cc(-c3ncc(OC4CN(S(C)(=O)=O)C4)cn3)n(CC(F)(F)F)c2)c1 [Example 651]
0.625	Cc1noc(C)c1COc1cc(F)cnc1-c1cc(C(=O)Nc2cc(Cl)cc(NS(C)(=O)=O)c2)cn1C [Example 725]
0.761	CS(=O)(=O)Nc1cc(Cl)cc(NC(=O)c2cc(-c3ncccc3F)n(CC(F)(F)F)c2)c1 [Example 564]
1.86	Cc1sc(C(=O)Nc2cc(Cl)cc(NS(C)(=O)=O)c2)cc1-c1ncc(F)cc1N1CCC2(CC1)CC2 [Example 507]
0.16	Cc1cc(C(=O)Nc2cc(Cl)cc(NS(C)(=O)=O)c2)cn1-c1ncc(F)cc1F [Example 444]
6.86	CC(=O)N1CCN(c2cc(F)cnc2-c2cc(C(=O)Nc3cc(Cl)cc(NS(C)(=O)=O)c3)sc2C)CC1 [Example 504]
> 10	Cc1sc(C(=O)Nc2cc(Cl)cc(NS(C)(=O)=O)c2)cc1-c1ncc(OC(C)(C)C(=O)O)cn1 [Example 670]
0.117	CCc1sc(C(=O)Nc2cc(Cl)cc(NS(C)(=O)=O)c2)cc1-c1ccc(F)cn1 [Example 589]
0.133	Cc1cc(C(=O)Nc2cc(Cl)cc(NS(C)(=O)=O)c2)cn1-c1ccc(N2CCOC2=O)cn1 [Example 416]
0.966	CCS(=O)(=O)Nc1cc(Cl)cc(NC(=O)c2cc(C)n(-c3ncc(F)cc3Cl)c2)c1 [Example 446]
0.303	Cn1cc(C(=O)Nc2cc(Cl)cc(NS(C)(=O)=O)c2)cc1-c1ccc(N2CCN(C(=O)C3CCCC3)CC2)cn1 [Example 592]
0.266	CS(=O)(=O)Nc1cc(Cl)cc(NC(=O)c2cc(-c3ncc(F)cn3)c(Cl)s2)c1 [Example 450]
0.292	Cc1sc(C(=O)Nc2cc(Cl)cc(NS(C)(=O)=O)c2)cc1-c1ncc(C(C)(O)C2CN(C)C2)cc1F (stereo not drawn) [Example 653]
> 10	CCCS(=O)(=O)Nc1cc(Cl)cc(NC(=O)c2cc(-c3ccc(N4CC(F)(F)C4)cn3)n(C)c2)c1 [Example 531]
0.0552	CN1CC[C@@H](Oc2cnc(-c3cc(C(=O)Nc4cc(Cl)cc(NS(C)(=O)=O)c4)cn3CC(F)(F)F)nc2)C1 [Example 641]
> 10	Cc1sc(C(=O)Nc2cc(Cl)cc(NS(C)(=O)=O)c2)cc1N1C(=O)N(C)C(C)(c2ccccn2)C1=O (stereo not drawn) [Example 660]
0.124	Cc1cc(C(=O)Nc2cc(Cl)cc(NS(C)(=O)=O)c2)cn1-c1ccc(OC(C)(C)C)cn1 [Example 663]
0.17	Cc1sc(C(=O)Nc2cc(Cl)cc(NS(C)(=O)=O)c2)cc1-c1ncc(S(C)(=O)=O)cn1 [Example 711]
0.517	Cc1cc(C(=O)Nc2cc(Cl)cc(NS(C)(=O)=O)c2)cn1-c1ncc(N2CC(F)(F)C2)cc1C(F)(F)F [Example 407]
0.156	CCS(=O)(=O)Nc1cc(Cl)cc(NC(=O)c2cc(-c3ncc(OC(C)(C)C)cn3)c(C)s2)c1 [Example 566]
0.725	Cc1sc(C(=O)Nc2cc(Cl)cc(NS(C)(=O)=O)c2)cc1-c1ncc(F)cc1N1CCN(S(C)(=O)=O)CC1 [Example 506]

Same assay, conditions: Homo sapiens, HCT-116, read-out: DHX9 Cellular Target Engagement EC50 (μM)

Compound	EC50 [µM]
Cc1sc(C(=O)Nc2cc(Cl)cc(NS(C)(=O)=O)c2)cc1-c1ncc(N2CC[Si](C)(C)CC2)cc1F [Example 473]	0.426

— US12162867B2, “Inhibitors of RNA helicase DHX9 and uses thereof” (ACCENT THERAPEUTICS, INC., priority 2022, dated 2024)
